Assays:
Test in all cases: KINOMEscan competition binding
Settings in all cases: compound 1.0 µM
[1] = target: CDKL2 (human) (UniProt Q92772)
[2] = target: MAP2K6 (human) (UniProt P52564)
[3] = target: CAMK1G (human) (UniProt Q96NX5)
[4] = target: CLK3 (human) (UniProt P49761)
[5] = target: LTK (human) (UniProt P29376)
[6] = target: ALK (human) (UniProt Q9UM73)
[7] = target: SIK3 (human) (UniProt Q9Y2K2)
[8] = target: KDR (human) (UniProt P35968)
[9] = system: EGFR (human), P00533 [747-751 del / S ins]
[10] = target: PHKG1 (human) (UniProt Q16816)
[11] = target: CSNK1A1 (human) (UniProt P48729)
[12] = target: EPHB2 (human) (UniProt P29323)
[13] = target: ICK (human) (UniProt Q9UPZ9)
[14] = target: CSNK1A1L (human) (UniProt Q8N752)
[15] = target: ROCK1 (human) (UniProt Q13464)
[16] = target: MINK1 (human) (UniProt Q8N4C8)
[17] = target: MYLK3 (human) (UniProt Q32MK0)
[18] = target: IKBKB (human) (UniProt O14920)
[19] = target: CSNK1G2 (human) (UniProt P78368)
[20] = target: MAP4K4 (human) (UniProt O95819)
[21] = target: STK38 (human) (UniProt Q15208)
[22] = target: FLT1 (human) (UniProt P17948)
[23] = target: PRKCD (human) (UniProt Q05655)
[24] = target: CAMK2A (human) (UniProt Q9UQM7)
[25] = target: FGFR2 (human) (UniProt P21802)
[26] = target: STK32B (human) (UniProt Q9NY57)
[27] = target: GSK3B (human) (UniProt P49841)
[28] = target: CDK7 (human) (UniProt P50613)
[29] = target: STK4 (human) (UniProt Q13043)
[30] = target: CDK16 (human) (UniProt Q00536)
[31] = target: MAP3K13 (human) (UniProt O43283)
[32] = target: CDK19 (human) (UniProt Q9BWU1)
[33] = target: NUAK2 (human) (UniProt Q9H093)
[34] = target: PHKG2 (human) (UniProt P15735)
[35] = system: LRRK2 (human), Q5S007 [G2019S]
[36] = target: MYO3A (human) (UniProt Q8NEV4)
[37] = target: TGFBR2 (human) (UniProt P37173)
[38] = target: CDKL5 (human) (UniProt O76039)
[39] = target: NTRK3 (human) (UniProt Q16288)
[40] = target: FES (human) (UniProt P07332)
[41] = target: NEK1 (human) (UniProt Q96PY6)
[42] = target: PAK4 (human) (UniProt O96013)
[43] = target: ULK1 (human) (UniProt O75385)

EGFR (human), P00533 [747-751 del / S ins], sequence (P00533 whole entry, looked up, stated change not applied): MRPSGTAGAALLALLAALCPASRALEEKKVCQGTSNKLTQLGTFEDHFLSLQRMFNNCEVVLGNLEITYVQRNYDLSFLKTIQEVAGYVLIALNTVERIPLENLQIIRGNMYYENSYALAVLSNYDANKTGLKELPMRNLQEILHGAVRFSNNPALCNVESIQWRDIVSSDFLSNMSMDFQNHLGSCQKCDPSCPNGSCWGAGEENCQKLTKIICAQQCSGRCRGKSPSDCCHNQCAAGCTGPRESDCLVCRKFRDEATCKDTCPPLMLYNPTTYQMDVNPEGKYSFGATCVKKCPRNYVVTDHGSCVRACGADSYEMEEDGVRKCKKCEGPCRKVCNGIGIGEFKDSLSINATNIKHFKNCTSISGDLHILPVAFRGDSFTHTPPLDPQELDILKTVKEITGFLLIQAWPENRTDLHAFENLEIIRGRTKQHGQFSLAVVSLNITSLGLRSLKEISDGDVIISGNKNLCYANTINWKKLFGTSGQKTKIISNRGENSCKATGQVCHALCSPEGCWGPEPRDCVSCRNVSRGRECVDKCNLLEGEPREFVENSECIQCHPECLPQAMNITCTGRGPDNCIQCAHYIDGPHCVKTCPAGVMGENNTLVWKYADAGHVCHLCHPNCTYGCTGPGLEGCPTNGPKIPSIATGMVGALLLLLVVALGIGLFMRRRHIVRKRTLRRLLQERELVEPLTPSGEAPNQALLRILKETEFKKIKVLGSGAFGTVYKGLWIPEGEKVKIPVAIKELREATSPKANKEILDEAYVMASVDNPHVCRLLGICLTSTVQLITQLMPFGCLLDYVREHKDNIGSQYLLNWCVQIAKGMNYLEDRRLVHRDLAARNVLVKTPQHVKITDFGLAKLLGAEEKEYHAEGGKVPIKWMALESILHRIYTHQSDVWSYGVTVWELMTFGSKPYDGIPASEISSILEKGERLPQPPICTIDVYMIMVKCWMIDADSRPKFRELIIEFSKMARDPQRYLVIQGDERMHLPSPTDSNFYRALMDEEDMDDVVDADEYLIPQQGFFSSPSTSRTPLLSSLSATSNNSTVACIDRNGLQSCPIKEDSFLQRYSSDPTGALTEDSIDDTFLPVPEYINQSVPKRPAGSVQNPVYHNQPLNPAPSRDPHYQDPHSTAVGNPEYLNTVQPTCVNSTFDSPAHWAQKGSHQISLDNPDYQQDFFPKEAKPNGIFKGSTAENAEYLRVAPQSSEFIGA
MAP3K13 (human), sequence (O43283 whole entry, looked up): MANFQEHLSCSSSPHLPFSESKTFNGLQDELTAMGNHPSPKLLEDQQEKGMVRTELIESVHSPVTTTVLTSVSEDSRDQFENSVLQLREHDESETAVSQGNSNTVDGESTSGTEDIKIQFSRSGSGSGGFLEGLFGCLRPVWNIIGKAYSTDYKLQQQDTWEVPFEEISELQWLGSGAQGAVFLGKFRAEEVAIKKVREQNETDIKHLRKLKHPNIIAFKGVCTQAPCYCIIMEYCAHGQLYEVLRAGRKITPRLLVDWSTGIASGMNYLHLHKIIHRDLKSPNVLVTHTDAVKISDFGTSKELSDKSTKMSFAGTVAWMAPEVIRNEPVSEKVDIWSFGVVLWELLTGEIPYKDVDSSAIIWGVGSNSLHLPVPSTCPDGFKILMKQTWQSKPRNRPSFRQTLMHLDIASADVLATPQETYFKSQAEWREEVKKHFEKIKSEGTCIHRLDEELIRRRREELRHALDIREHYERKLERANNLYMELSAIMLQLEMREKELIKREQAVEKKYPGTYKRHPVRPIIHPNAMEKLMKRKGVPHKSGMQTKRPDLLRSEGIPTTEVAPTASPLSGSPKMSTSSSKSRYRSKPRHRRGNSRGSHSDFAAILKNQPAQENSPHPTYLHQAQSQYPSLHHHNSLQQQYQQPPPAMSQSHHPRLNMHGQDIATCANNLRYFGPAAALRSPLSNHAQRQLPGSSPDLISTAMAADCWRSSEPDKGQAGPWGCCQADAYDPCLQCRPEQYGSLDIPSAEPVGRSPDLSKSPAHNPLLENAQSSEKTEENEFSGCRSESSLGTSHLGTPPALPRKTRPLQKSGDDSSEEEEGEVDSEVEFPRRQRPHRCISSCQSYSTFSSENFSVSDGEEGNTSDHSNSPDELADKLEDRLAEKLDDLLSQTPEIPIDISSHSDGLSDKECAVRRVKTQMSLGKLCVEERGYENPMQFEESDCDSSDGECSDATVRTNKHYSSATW
CDK19 (human), sequence (Q9BWU1 whole entry, looked up): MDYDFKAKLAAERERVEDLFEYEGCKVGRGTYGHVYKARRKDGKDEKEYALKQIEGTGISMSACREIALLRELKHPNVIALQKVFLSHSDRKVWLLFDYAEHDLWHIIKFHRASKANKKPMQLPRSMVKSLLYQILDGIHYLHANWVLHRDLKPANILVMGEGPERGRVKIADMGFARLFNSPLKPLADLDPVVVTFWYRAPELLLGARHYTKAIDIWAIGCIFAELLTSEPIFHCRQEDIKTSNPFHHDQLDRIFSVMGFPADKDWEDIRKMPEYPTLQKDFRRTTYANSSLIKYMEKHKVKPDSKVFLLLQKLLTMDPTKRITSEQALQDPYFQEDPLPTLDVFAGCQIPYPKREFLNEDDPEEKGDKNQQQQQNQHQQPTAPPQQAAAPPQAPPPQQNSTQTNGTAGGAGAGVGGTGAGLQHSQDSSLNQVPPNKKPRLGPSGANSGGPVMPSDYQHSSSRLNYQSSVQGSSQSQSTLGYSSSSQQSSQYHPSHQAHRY
KDR (human), sequence (P35968 whole entry, looked up): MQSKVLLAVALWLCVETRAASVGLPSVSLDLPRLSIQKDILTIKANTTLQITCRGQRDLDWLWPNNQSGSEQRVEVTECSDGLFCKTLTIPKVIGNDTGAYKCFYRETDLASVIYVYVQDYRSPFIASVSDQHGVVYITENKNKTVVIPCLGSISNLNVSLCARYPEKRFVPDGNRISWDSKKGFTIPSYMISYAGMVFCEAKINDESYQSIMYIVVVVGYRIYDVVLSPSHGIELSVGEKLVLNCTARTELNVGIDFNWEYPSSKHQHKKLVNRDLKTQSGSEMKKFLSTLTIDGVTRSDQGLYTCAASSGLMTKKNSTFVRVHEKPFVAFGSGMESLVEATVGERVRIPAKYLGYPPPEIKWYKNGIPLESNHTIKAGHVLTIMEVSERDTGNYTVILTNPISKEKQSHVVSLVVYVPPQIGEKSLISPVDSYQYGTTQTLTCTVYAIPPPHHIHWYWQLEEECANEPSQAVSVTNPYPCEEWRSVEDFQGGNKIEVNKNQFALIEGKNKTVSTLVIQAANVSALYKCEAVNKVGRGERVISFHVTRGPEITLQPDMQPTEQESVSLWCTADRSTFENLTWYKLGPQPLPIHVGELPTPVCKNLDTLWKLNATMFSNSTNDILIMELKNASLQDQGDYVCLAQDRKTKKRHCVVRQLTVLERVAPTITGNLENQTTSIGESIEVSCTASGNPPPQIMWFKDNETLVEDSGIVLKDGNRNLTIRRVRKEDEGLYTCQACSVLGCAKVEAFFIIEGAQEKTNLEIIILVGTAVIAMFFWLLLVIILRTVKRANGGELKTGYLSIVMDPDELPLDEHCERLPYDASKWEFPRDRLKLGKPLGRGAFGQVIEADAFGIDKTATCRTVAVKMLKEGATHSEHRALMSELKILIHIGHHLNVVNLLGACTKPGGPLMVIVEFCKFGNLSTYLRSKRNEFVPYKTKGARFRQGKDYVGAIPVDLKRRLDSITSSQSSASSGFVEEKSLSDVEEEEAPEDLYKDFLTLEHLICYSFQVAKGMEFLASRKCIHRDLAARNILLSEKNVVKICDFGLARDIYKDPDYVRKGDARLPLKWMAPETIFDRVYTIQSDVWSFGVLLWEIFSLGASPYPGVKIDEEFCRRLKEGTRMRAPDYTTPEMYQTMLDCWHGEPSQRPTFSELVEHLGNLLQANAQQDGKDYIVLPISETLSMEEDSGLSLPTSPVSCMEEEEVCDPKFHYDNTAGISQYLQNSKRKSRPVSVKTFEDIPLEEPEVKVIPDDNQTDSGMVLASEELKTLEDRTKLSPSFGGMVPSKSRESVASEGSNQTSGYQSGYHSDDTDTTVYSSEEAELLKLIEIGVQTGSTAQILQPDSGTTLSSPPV
LTK (human), sequence (P29376 whole entry, looked up): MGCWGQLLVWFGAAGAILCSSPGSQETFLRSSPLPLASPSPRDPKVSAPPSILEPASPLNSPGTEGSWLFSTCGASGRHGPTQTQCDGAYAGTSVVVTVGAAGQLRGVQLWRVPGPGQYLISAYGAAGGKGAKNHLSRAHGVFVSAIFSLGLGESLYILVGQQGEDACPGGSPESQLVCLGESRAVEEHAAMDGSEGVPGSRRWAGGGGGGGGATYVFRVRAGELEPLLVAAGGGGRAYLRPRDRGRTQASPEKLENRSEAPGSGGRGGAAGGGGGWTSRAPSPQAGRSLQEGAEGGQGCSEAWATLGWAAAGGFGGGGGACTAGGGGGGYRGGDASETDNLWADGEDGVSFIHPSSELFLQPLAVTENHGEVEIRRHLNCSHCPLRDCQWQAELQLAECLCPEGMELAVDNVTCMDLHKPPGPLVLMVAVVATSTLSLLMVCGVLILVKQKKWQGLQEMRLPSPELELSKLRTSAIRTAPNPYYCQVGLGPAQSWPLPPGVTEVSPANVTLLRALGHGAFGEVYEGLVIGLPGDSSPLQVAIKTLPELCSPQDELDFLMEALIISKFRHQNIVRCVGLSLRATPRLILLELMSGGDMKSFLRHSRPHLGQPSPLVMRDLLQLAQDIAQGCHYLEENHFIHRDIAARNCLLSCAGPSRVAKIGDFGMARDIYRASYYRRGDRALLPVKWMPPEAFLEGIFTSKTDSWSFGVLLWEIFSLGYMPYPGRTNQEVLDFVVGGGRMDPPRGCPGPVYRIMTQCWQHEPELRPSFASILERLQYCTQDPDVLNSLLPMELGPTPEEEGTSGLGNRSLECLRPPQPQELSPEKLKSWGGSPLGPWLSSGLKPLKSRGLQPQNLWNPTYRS

Compound: COCCNCCCn1c(C(=O)CF)c(-c2ccc(C)cc2)c2c(N)ncnc21
- kinase still bound, per cent of control [1]: 87%
- kinase still bound, per cent of control [2]: 97%
- kinase still bound, per cent of control [3]: 97%
- kinase still bound, per cent of control [4]: 79%
- kinase still bound, per cent of control [5]: 100%
- kinase still bound, per cent of control [6]: 71%
- kinase still bound, per cent of control [7]: 91%
- kinase still bound, per cent of control [8]: 85%
- kinase still bound, per cent of control [9]: 84%
- kinase still bound, per cent of control [10]: 100%
- kinase still bound, per cent of control [11]: 100%
- kinase still bound, per cent of control [12]: 92%
- kinase still bound, per cent of control [13]: 100%
- kinase still bound, per cent of control [14]: 100%
- kinase still bound, per cent of control [15]: 98%
- kinase still bound, per cent of control [16]: 100%
- kinase still bound, per cent of control [17]: 96%
- kinase still bound, per cent of control [18]: 95%
- kinase still bound, per cent of control [19]: 100%
- kinase still bound, per cent of control [20]: 88%
- kinase still bound, per cent of control [21]: 100%
- kinase still bound, per cent of control [22]: 96%
- kinase still bound, per cent of control [23]: 90%
- kinase still bound, per cent of control [24]: 78%
- kinase still bound, per cent of control [25]: 100%
- kinase still bound, per cent of control [26]: 98%
- kinase still bound, per cent of control [27]: 100%
- kinase still bound, per cent of control [28]: 100%
- kinase still bound, per cent of control [29]: 94%
- kinase still bound, per cent of control [30]: 100%
- kinase still bound, per cent of control [31]: 92%
- kinase still bound, per cent of control [32]: 98%
- kinase still bound, per cent of control [33]: 96%
- kinase still bound, per cent of control [34]: 100%
- kinase still bound, per cent of control [35]: 100%
- kinase still bound, per cent of control [36]: 100%
- kinase still bound, per cent of control [37]: 100%
- kinase still bound, per cent of control [38]: 100%
- kinase still bound, per cent of control [39]: 91%
- kinase still bound, per cent of control [40]: 100%
- kinase still bound, per cent of control [41]: 100%
- kinase still bound, per cent of control [42]: 92%
- kinase still bound, per cent of control [43]: 100%

Reference: the kinase profiling compilation of Christmann-Franck et al. (2016)
